Measured values published in ChEMBL document CHEMBL1130445, “The synthesis of CD-ring modified 1,25-dihydroxy vitamin D analogues: Six-membered D-ring analogues I” (1997).

Key:
[1] = system: HL-60; assay: Biological evaluation in vitro on HL-60 cell line; format: functional, Homo sapiens; set-up: reference not given here
[2] = system: Keratinocyte; assay: Biological evaluation in vitro on keratinocytes; format: functional; set-up: reference not given here
[3] = system: MG-63; assay: Biological evaluation in vitro on MG-63 cell line; format: functional, Homo sapiens; set-up: reference not given here
[4] = system: MCF7; assay: Biological evaluation in vitro on MCF-7 cell line; format: functional, Homo sapiens; set-up: reference not given here
[5] = system: Mus musculus; assay: The in vivo effect was tested in vitamin D-deplete normal NMRI mice by measuring calcium levels in serum.; format: functional; set-up: reference not given here
[6] = biological target: T1, Vitamin D3 receptor (Sus scrofa) (UniProt A3RGC1); assay: Inhibition of 1-alpha,25(OH)2 D3 binding to pig intestinal mucosa Vitamin D3 receptor (VDR); format: tissue-based
T1 sequence (whole entry): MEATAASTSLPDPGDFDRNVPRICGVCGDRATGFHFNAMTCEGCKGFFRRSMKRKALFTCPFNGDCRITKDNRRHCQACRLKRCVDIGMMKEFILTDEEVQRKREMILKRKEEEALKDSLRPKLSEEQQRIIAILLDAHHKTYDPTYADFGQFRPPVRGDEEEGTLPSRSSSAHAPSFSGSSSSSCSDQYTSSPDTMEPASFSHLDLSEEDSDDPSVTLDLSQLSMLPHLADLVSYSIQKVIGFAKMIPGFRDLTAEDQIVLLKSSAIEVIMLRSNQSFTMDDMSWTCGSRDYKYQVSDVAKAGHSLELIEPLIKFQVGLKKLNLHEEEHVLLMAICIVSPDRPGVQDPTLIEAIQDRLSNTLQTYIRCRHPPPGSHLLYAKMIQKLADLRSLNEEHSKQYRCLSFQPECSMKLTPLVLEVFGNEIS

| Compound | Relative affinity [6] | Biological evaluation [1] | Biological evaluation [2] | Biological evaluation [3] | Biological evaluation [4] | Biological evaluation [5] |
| --- | --- | --- | --- | --- | --- | --- |
| C=C1C(=CC=C[C@H]2CCC[C@H]([C@H](C)CCCC(C)(C)O)C2(C)C)C[C@@H](O)C[C@@H]1O | 1 | 2 | 30 | 3 | 1 | <0.1 |
| C=C1C(=CC=C[C@@H]2CCC[C@H]([C@@H](C)CCCC(C)(C)O)C2(C)C)C[C@@H](O)C[C@@H]1O | 0.5 | 1 | 8 | 1 | 0 | 0.1 |
| C=C1C(=CC=C[C@H]2CCC[C@H]([C@H](C)CCCCC(O)(CC)CC)C2(C)C)C[C@@H](O)C[C@@H]1O | 60 | 600 | 1500 | 800 | 3000 | 20 |

More lines, main results first:

| Relative affinity [6] | Compound | Biological evaluation [1] | Biological evaluation [2] | Biological evaluation [3] | Biological evaluation [4] | Biological evaluation [5] |
| --- | --- | --- | --- | --- | --- | --- |
| 125 | C=C1C(=CC=C[C@@H]2CCC[C@H]([C@H](C)CCCC(C)(C)O)C2(C)C)C[C@@H](O)C[C@@H]1O | 90 | 300 | 300 | 300 | 4 |
| 0.9 | C=C1C(=CC=C[C@H]2CCC[C@H]([C@@H](C)CCCC(C)(C)O)C2(C)C)C[C@@H](O)C[C@@H]1O | 1 | 8 | 1 | 0 | <0.1 |
